Experiment [1] addresses T1, GST-LXRβ ligand-binding domain (Homo sapiens, UniProt P55055).
T1 construct: amino acids 156-461; NP009052; made in house; host or cells: E. coli
T1 sequence (P55055 156-460 limits assumed): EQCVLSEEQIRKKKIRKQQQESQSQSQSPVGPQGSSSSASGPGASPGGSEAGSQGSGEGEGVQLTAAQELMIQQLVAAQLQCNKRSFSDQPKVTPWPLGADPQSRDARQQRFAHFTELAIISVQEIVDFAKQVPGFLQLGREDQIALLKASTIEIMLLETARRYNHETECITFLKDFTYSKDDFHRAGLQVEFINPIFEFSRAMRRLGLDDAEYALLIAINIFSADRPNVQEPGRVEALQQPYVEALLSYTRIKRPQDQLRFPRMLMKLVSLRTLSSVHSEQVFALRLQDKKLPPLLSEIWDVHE
Kind of experiment: TR-FRETβ activity assay (NCoA3 coactivator peptide recruitment). The following applies: 1 μM 24(S)-25-epoxycholesterol prestimulation. Type of experiment: biochemical. The procedure, abridged:
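Inverse-agonist format, with LXR prestimulated by 1 μM 24(S)-25-epoxycholesterol in pH 6.8 Tris/HCl, 240 mM KCl, BSA and Triton. Ten concentrations from 50 μM to 0.002 μM were equilibrated 1 h at 4° C with 76 nM GST-LXRβ LBD and 400 nM biotin-NCoA3 peptide. Peptide recruitment detected by 665/615 nm TR-FRET.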

Experiment [2] deals with T2, LXRβ (Homo sapiens, UniProt P55055).
T2 construct: LXRβ (amino acids 156-461); expressed in transfected cells; host or cells: HEK293
T2 sequence (P55055 156-460): T1 sequence (P55055 156-460 limits assumed)
Kind of experiment: LXR Gal4 reporter transient transfection assay (mammalian two-hybrid, HEK293), LXRβ. Format: cell-based. The following applies: ligand-binding domain (LBD) of LXRβ, HEK293; read-out: LBD-M2H Gal4β. Here is the method:
LXRα and LXRβ activity status was determined via detection of interaction with coactivator and corepressor proteins in mammalian two-hybrid experiments (M2H). For this, via transient transfection the full length (FL) proteins of LXRα (amino acids 1-447; NP005684; SEQ ID NO:1) or LXRβ-(amino acids 1-461; NP009052; SEQ ID NO:2) or the ligand-binding domains (LBD) of LXRα (amino acids 155-447 SEQ ID NO:3) or LXRβ (amino acids 156-461; SEQ ID NO:4) were expressed from pCMV-AD (Stratagene) as fusions to the transcriptional activation domain of NFkB. As cofactors, domains of either the steroid receptor coactivator 1 (SRC1; amino acids 552-887; SEQ ID NO:5) or of the corepressor NCoR (amino acids 1906-2312; NP006302; SEQ ID NO:6) were expressed as fusions to the DNA binding domain of the yeast transcription factor GAL4 (from pCMV-BD; Stratagene). Interaction was monitored via activation of a coexpressed Firefly Luciferase Reporter gene under control of a promoter containing repetitive GAL4 response elements (vector pFRLuc; Stratagene). Transfection efficiency was controlled via cotransfection of constitutively active pRL-CMV Renilla reniformis luciferase reporter (Promega). HEK293 cells were grown in minimum essential medium (MEM) with 2 mM L-glutamine and Earle's balanced salt solution supplemented with 8.3% fetal bovine serum, 0.1 mM non-essential amino acids, 1 mM sodium pyruvate, at 37° C. in 5% CO2. 3.5×10^4 cells/well were plated in 96-well cell culture plates in growth medium supplemented with 8.3% fetal bovine serum for 16-20 h to ˜90% confluency. For transfection, medium was taken off and LXR and cofactor expressing plasmids as well as the reporter plasmids are added in 30 μL OPTIMEM/well including polyethylene-imine (PEI) as vehicle. Typical amounts of plasmids transfected/well: pCMV-AD-LXR (5 ng), pCMV-BD-cofactor (5 ng), pFR-Luc (100 ng), pRL-CMV (0.5 ng). Compound stocks were prepared in DMSO, prediluted in MEM to a total volume of 120 μL, and added 4 h after addition of the transfection mixture (final vehicle concentration not exceeding 0.2%). Cells were incubated for additional 16 h, lysed for 10 min in 1×Passive Lysis Buffer (Promega) and Firefly and Renilla luciferase activities were measured sequentially in the same cell extract using buffers containing D-luciferine and coelenterazine, respectively. Measurements of luminescence were done in a BMG-luminometer.
The potencies of Compound 21/3 and its analog, Compound pre-6/3, against LXRα and LXRβ were evaluated in biochemical binding assays, cellular mammalian two-hybrid (M2H) interaction assays evaluating nuclear receptor co-repressor (NCOR) recruitment, and cellular reporter assays evaluating transcriptional activity (Table 5).

Molecules are shown by their SMILES. pEC50: −log10 of the molar value.

As to `N#Cc1sccc1-c1c(-c2cccc(N3CC(C(=O)O)C3)c2)n(S(=O)(=O)c2ccccc2)c2ccc(F)cc12` [3/9], the pEC50 in experiment [1] was 5.00 to 6.00; in experiment [2], more than 7.00.

Turning to `Cc1ccc(S(=O)(=O)n2c(-c3ccc(CC(C)(C)C(=O)O)s3)c(-c3ccsc3C#N)c3ccccc32)cc1` [3/16], the pEC50 in experiment [1] was 5.00 to 6.00; in experiment [2] it was 6.00 to 7.00.

`Cc1ccc(S(=O)(=O)n2c(-c3cc(C4CC4C(=O)O)cs3)c(-c3ccsc3C#N)c3ccccc32)cc1` (stereo not drawn) [3/17]: the pEC50 in experiment [1] is 5.00 to 6.00; in experiment [2], more than 7.00.

On to `Cc1ccc(S(=O)(=O)n2c(-c3cccc(/C=C/C(=O)O)c3)c(-c3ccsc3C#N)c3ccccc32)cc1` [3/18], for which the pEC50 is 5.00 to 6.00 in experiment [1] and more than 7.00 in experiment [2].

Regarding `Cc1ccc(S(=O)(=O)n2c(-c3ccc(/C=C/C(=O)O)s3)c(-c3ccsc3C#N)c3ccccc32)cc1` [3/19], the values for the pEC50 in experiment [1] and in experiment [2] were 5.00 to 6.00 and 6.00 to 7.00, respectively.

In the case of `Cc1ccc(S(=O)(=O)n2c(-c3cccc(C(C)(C)C(=O)O)c3)c(-c3ccsc3C#N)c3ccccc32)cc1` [3/20], the pEC50 in experiment [1] was 5.00 to 6.00; in experiment [2], more than 7.00.

Regarding `N#Cc1sccc1-c1c(-c2cccc(OCC(=O)O)c2)n(S(=O)(=O)c2ccc(Cl)cc2)c2ccccc12` [3/51], the pEC50 was 5.00 to 6.00 in experiment [1] and 6.00 to 7.00 in experiment [2].

As for `N#Cc1sccc1-c1c(-c2cccs2)n(S(=O)(=O)c2ccc(Cl)cc2)c2cc(O)ccc12` [13/1], the pEC50 is 5.00 to 6.00 in experiment [1] and more than 7.00 in experiment [2].

For `N#Cc1sccc1-c1c(-c2cccs2)n(S(=O)(=O)c2ccc(Cl)cc2)c2ccc(OCCCC(=O)O)cc12` [15/1], the pEC50 in experiment [1] was 5.00 to 6.00; in experiment [2], 6.00 to 7.00.

On to `N#Cc1sccc1-c1c(-c2cccs2)n(S(=O)(=O)c2ccc(Cl)cc2)c2ccc(OCCCCC(=O)O)cc12` [15/2], for which the pEC50 in experiment [1] is less than 5.00; in experiment [2] it was 6.00 to 7.00.

With `N#Cc1sccc1-c1c(-c2cccs2)n(S(=O)(=O)c2ccc(Cl)cc2)c2cc(OCCCC(=O)O)ccc12` [15/4], the pEC50 in experiment [1] is 5.00 to 6.00; in experiment [2], more than 7.00.

Consider `N#Cc1sccc1-c1c(-c2cccs2)n(S(=O)(=O)c2ccc(Cl)cc2)c2cc(OCCCCC(=O)O)ccc12` [15/5], for which the values for the pEC50 in experiment [1] and in experiment [2] were 5.00 to 6.00 and more than 7.00, respectively.

For `COc1ccc(S(=O)(=O)n2c(-c3ccc(CCC(=O)O)cc3)c(-c3ccsc3C#N)c3ccccc32)cc1` [15/6], the figures for the pEC50 in experiment [1] and in experiment [2] were 5.00 to 6.00 and 6.00 to 7.00, respectively.

For the compound `N#Cc1ccncc1-c1c(-c2cccs2)n(S(=O)(=O)c2ccc(Cl)cc2)c2ccccc12` [20/2], the results for the pEC50 in experiment [1] and in experiment [2] were 5.00 to 6.00 and more than 7.00, respectively.

For `O=S(=O)(c1ccc(Cl)cc1)n1c(-c2cccs2)c(-c2ccsc2C(F)F)c2ccccc21` [20/3], the pEC50 in experiment [1] was 6.00 to 7.00; in experiment [2] it was more than 7.00.

Consider `N#Cc1cscc1-c1c(-c2cccs2)n(S(=O)(=O)c2ccc(Cl)cc2)c2ccccc12` [20/4], for which the results for the pEC50 in experiment [1] and in experiment [2] were 5.00 to 6.00 and more than 7.00, respectively.

Regarding `CS(=O)(=O)c1ccccc1-c1c(-c2cccs2)n(S(=O)(=O)c2ccc(Cl)cc2)c2ccccc12` [20/5], the pEC50 in experiment [1] is 5.00 to 6.00; in experiment [2], 6.00 to 7.00.

As to `N#Cc1cc(F)ccc1-c1c(-c2cccs2)n(S(=O)(=O)c2ccc(Cl)cc2)c2ccccc12` [20/6], the pEC50 was 6.00 to 7.00 in experiment [1] and more than 7.00 in experiment [2].

On to `N#Cc1nccnc1-c1c(-c2cccs2)n(S(=O)(=O)c2ccc(Cl)cc2)c2ccccc12` [20/7], for which the pEC50 was 5.00 to 6.00 in experiment [1] and more than 7.00 in experiment [2].

Regarding `N#Cc1sccc1-c1c(-c2cccs2)n(S(=O)(=O)c2ccc(F)cc2)c2ccccc12` [20/11], the pEC50 in experiment [1] is 6.00 to 7.00; in experiment [2], more than 7.00.

Regarding `N#Cc1sccc1-c1c(-c2cccs2)n(S(=O)(=O)c2ccc(F)cc2F)c2ccccc12` [20/12], the pEC50 in experiment [1] was 5.00 to 6.00; in experiment [2] it was more than 7.00.

Consider `N#Cc1sccc1-c1c(-c2cccs2)n(S(=O)(=O)c2ccc(Cl)cc2)c2ccccc12` [20/13], for which the pEC50 was 6.00 to 7.00 in experiment [1] and more than 7.00 in experiment [2].

Regarding `COC(=O)CCc1ccc(S(=O)(=O)n2c(-c3cccs3)c(-c3ccsc3C#N)c3ccccc32)cc1` [20/15], the pEC50 in experiment [1] and in experiment [2] was 6.00 to 7.00 in each case.

Consider `COc1ccc(S(=O)(=O)n2c(-c3ccccc3)c(C3=C(C#N)CCCC3)c3ccccc32)cc1` [20/16], for which the pEC50 in experiment [1] was 5.00 to 6.00; in experiment [2], 6.00 to 7.00.

On to `COc1ccc(S(=O)(=O)n2c(-c3ccccc3)c(C3=C(C#N)c4ccccc4CC3)c3ccccc32)cc1` [20/19], for which the pEC50 is less than 5.00 in experiment [1] and 6.00 to 7.00 in experiment [2].

Consider `COc1ccc(S(=O)(=O)n2c(-c3ccccc3)c(-c3ccc4ncccc4c3C#N)c3ccccc32)cc1` [20/20], for which the pEC50 in experiment [1] is 5.00 to 6.00; in experiment [2] it was 6.00 to 7.00.

As for `COc1ccc(S(=O)(=O)n2c(-c3ccccc3)c(-c3ccsc3C)c3ccccc32)cc1` [20/21], the pEC50 in experiment [1] is 5.00 to 6.00; in experiment [2] it was more than 7.00.

For the compound `COc1ccc(S(=O)(=O)n2c(-c3ccccc3)c(-c3ccsc3OC)c3ccccc32)cc1` [20/22], the pEC50 in experiment [1] and in experiment [2] was 6.00 to 7.00 in each case.

For `COc1ccc(S(=O)(=O)n2c(-c3ccccc3)c(-c3cc(C)sc3C#N)c3ccccc32)cc1` [20/23], the pEC50 was 5.00 to 6.00 in experiment [1] and 6.00 to 7.00 in experiment [2].

Regarding `N#Cc1ccc(OCC(=O)O)cc1-c1c(-c2cccs2)n(S(=O)(=O)c2ccc(Cl)cc2)c2ccccc12` [21/1], the pEC50 in experiment [1] and in experiment [2] was 5.00 to 6.00 throughout.

`N#Cc1c(OCC(=O)O)cccc1-c1c(-c2cccs2)n(S(=O)(=O)c2ccc(Cl)cc2)c2ccccc12` [21/2]: the pEC50 in experiment [1] and in experiment [2] was 5.00 to 6.00 each time.

For `N#Cc1sccc1-c1c(-c2cccs2)n(S(=O)(=O)c2ccc(CCC(=O)O)cc2)c2ccccc12` [23/1], the pEC50 in experiment [1] was 5.00 to 6.00; in experiment [2], more than 7.00.

Regarding `N#Cc1sccc1-c1c(-c2ccc(F)cc2)n(S(=O)(=O)c2ccc(Cl)cc2)c2ccccc12` [26/1], the pEC50 in experiment [1] was 5.00 to 6.00; in experiment [2], more than 7.00.

As for `Cc1ccc(S(=O)(=O)n2c(-c3cccc(-c4cccc(C(=O)O)c4)c3)c(-c3ccsc3C#N)c3ccccc32)cc1` [30/1], the pEC50 was 6.00 to 7.00 in experiment [1] and more than 7.00 in experiment [2].

For the compound `Cc1ccc(S(=O)(=O)n2c(-c3cccc(-c4cccc(C(C)(C)C(=O)O)c4)c3)c(-c3ccsc3C#N)c3ccccc32)cc1` [30/2], the pEC50 in experiment [1] was 5.00 to 6.00; in experiment [2], 6.00 to 7.00.

`N#Cc1sccc1-c1c(-c2cccc(CCCC(=O)O)c2)n(S(=O)(=O)c2ccc(Cl)cc2)c2ccccc12` [30/5]: the pEC50 in experiment [1] is 5.00 to 6.00; in experiment [2], more than 7.00.

`N#Cc1sccc1-c1c(-c2cccc(N3CC(C(=O)O)C3)n2)n(S(=O)(=O)c2ccc(Cl)cc2)c2ccccc12` [30/6]: the pEC50 in experiment [1] is 5.00 to 6.00; in experiment [2], 6.00 to 7.00.

As to `N#Cc1sccc1-c1c(-c2ccc(C3CC3C(=O)O)s2)n(S(=O)(=O)c2ccc(Cl)cc2)c2ccccc12` (stereo not drawn) [30/8], the pEC50 in experiment [1] is 5.00 to 6.00; in experiment [2], 6.00 to 7.00.

With `N#Cc1sccc1-c1c(-c2cc(Cl)cc(C3CC3C(=O)O)c2)n(S(=O)(=O)c2ccc(Cl)cc2)c2ccccc12` (stereo not drawn) [30/9], the pEC50 in experiment [1] was 5.00 to 6.00; in experiment [2] it was more than 7.00.
